Test results as given in patent publication US9115134B2, “6-triazolopyridazine sulfanyl benzothiazole derivatives as MET inhibitors” (SANOFI, priority 2007, dated 2015).

Experiments:
MET [1] = target: T1, MET (Homo sapiens, UniProt P08581); assay: Test B: Inhibition of the autophosphorylation of MET; ELISA technique (pppY1230,1234,1235) in MKN45 cells; assay type: cell-based; set-up: Seed MKN45 cells into 96-well plates (Cell coat BD polylysine) at 20 000 cells/well; endogenous in cells; host or cells: MKN45 cells; settings: 1 h treatment, PhosphoMET ELISA
Description: Leave to adhere for 24 hours in an incubator.
The cells are treated the day after seeding with the products at 6 concentrations in duplicate for 1 h. At least 3 control wells are treated with the same final amount of DMSO.
Product dilution: Stock at 10 mM in pure DMSO—range from 10 mM to 30 μM with an increment of 3 in pure DMSO—intermediate 1/50 dilutions in culture medium and then removal of 10 μl added directly to the cells (200 μl): final range of 10 000 to 30 nM.
At the end of the incubation, carefully remove the supernatant and rinse with 200 μl of PBS. Next, place 100 μl of lysis buffer directly in the wells on ice and incubate at 4° C. for 30 minutes. Lysis buffer: 10 mM Tris HCl, pH7.4, 100 mM NaCl, 1 mM EDTA, 1 mM EGTA, 1% Triton X-100, 10% glycerol, 0.1% SDS, 0.5% deoxycholate, 20 mM NaF, 2 mM Na3VO4, 1 mM PMSF and cocktail of antiproteases.
The 100 μl of lysates are transferred into a V-bottomed polypropylene plate and the ELISA is performed immediately, or the plate is frozen at −80° C. • b) PhosphoMET ELISA BioSource Kit KH00281
Into each well of the kit plate, add 70 μl of kit dilution buffer+30 μL of cell lysate or 30 μl of lysis buffer for the blanks. Incubate for 2 h with gentle agitation at ambient temperature.
Rinse the wells 4 times with 400 μl of kit washing buffer. Incubate with 100 μl of anti-phospho MET antibody for 1 hour at ambient temperature.
Rinse the wells 4 times with 400 μl of kit washing buffer. Incubate with 100 μl of anti-rabbit HRP antibody for 30 minutes at ambient temperature (except for the wells of chromogen alone).
Rinse the wells 4 times with 400 μl of kit washing buffer. Introduce 100 μL of chromogen and incubate for 30 minutes in the dark at ambient temperature.
(§1) Stop the reaction with 100 μl of stop solution. Read without delay at […], 0.1 second on Wallac Victor plate reader. • C) Test C: Measurement of cell proliferation by ^14c-thymidine pulse
Target sequence in this assay (P08581 25-1390): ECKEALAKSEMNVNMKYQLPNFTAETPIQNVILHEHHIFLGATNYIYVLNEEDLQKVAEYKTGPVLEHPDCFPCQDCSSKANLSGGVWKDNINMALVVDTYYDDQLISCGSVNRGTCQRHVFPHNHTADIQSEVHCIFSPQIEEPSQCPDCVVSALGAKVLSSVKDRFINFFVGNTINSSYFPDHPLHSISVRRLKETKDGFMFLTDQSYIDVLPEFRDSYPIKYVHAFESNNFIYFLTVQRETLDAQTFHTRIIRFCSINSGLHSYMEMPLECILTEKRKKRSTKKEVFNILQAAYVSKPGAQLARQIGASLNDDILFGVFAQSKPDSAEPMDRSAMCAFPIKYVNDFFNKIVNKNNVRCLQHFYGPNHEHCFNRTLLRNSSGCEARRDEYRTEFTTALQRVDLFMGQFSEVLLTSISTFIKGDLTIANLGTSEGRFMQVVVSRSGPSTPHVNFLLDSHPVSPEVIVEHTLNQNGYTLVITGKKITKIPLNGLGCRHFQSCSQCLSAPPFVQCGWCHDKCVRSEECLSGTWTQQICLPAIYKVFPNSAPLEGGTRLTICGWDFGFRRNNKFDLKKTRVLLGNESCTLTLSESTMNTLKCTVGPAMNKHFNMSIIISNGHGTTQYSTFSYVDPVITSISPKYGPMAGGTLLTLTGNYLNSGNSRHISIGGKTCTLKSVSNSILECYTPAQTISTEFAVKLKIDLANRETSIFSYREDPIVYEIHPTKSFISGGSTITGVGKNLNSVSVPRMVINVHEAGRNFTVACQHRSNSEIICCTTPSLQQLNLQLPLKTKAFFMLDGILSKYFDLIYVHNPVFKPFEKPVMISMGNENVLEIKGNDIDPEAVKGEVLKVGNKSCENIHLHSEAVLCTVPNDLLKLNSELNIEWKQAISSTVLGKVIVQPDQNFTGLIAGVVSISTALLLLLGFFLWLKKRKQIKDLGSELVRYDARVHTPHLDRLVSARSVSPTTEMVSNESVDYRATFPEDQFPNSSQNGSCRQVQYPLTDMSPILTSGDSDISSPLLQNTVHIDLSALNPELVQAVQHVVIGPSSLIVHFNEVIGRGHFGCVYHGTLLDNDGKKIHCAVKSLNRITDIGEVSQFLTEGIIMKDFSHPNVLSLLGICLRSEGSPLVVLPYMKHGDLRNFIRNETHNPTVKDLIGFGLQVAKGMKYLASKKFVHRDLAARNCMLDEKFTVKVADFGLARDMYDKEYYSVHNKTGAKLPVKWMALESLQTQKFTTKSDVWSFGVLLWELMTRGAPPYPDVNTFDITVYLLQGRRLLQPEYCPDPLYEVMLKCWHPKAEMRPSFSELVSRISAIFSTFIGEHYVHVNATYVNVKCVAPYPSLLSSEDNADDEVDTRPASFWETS

[2] = system: HCT116 cells, MKN45 cells; assay: Test C: Measurement of cell proliferation by 14C-thymidine pulse; assay type: cell-based; settings: 14C-thymidine incorporation, 96 h of treatment; cell line not given
Description: as §1
The cells are seeded into Cytostar 96-well plates in 180 μl for 4 hours at 37° C. and 5% CO2: HCT116 cells at a rate of 2500 cells per well in DMEM medium+10% foetal calf serum+1% L-glutamine and MKN45 cells at a rate of 7500 cells per well in RPMI medium+10% foetal calf serum+1% L-glutamine. After these 4 hours of incubation, the products are added in 10 μl as a 20-fold concentrated solution according to the dilution method mentioned for the ELISA. The products are tested at 10 concentrations in duplicate from 10 000 nM to 0.3 nM with an increment of 3.
After treatment for 72 h, add 10 μl of ^14C-thymidine at 10 μCi/ml to obtain 0.1 μCi per well. The ^14C-thymidine incorporation is measured on a Micro-Beta machine (Perkin-Elmer) after 24 hours of pulse and 96 h of treatment.
All the steps of the assay are automated on BIOMEK 2000 or TECAN stations.

MET [3] = target: T1, MET; assay: Test A: HTRF MET assay in 96-well format; assay type: biochemical; set-up: The His-Tev-MET (956-1390) recombinant DNA in pFastBac (Invitrogen) is transfected into insect cells; His tag (N, cleaved yes); TEV cleavage site (N); made in house; host or cells: SF21 insect cells (baculovirus, pFastBac); settings: MET 5 nM, 10 μM ATP
Description: I) Expression and Purification of MET, Cytoplasmic Domain
The His-Tev-MET (956-1390) recombinant DNA in pFastBac (Invitrogen) is transfected into insect cells, and after several viral amplification steps, the final baculovirus stock is tested for the expression of the protein of interest.
After infection for 72 h at 27° C. with the recombinant virus, the SF21 cell cultures are harvested by centrifugation and the cell pellets are stored at −80° C.
The cell pellets are resuspended in lysis buffer (buffer A [50 mM HEPES, pH 7.5, 250 mM NaCl, 10% glycerol, 1 mM TECP]; +cocktail of protease inhibitors, Roche Diagnostics, without EDTA, ref 1873580), stirred at 4° C. until the mixture is homogeneous and then lyzed mechanically using a “Dounce” type apparatus.
After centrifugation, the lysis supernatant is incubated for 2 h at 4° C. with nickel chelate resin (His-Trap 6 Fast Flow™, GE HealthCare). After washing with 20 volumes of buffer A, the suspension is packed into a column, and the proteins are eluted with a gradient of buffer B ([…]+290 mM imidazole).
The fractions containing the protein of interest for the purpose of electrophoretic analysis (SDS PAGE) are combined, concentrated by ultrafiltration (10 kDa cut-off) and injected onto an exclusion chromatography column (Superdex™ 200, GE HealthCare) equilibrated in buffer A.
After enzymatic cleavage of the histidine tag, the protein is reinjected onto a new IMAC nickel chelate chromatography column (His-Trap 6 Fast Flow™, GE HealthCare) equilibrated in buffer A. The fractions eluted with a gradient of buffer B and containing the protein of interest after electrophoresis (SDS PAGE) are finally combined and conserved at −80° C.
For the production of autophosphorylated protein, the previous fractions are incubated for 1 h at ambient temperature after the addition of 2 mM ATP, 2 mM MgCl2, and 4 mM Na3VO4. After the reaction has been stopped with 5 mM of EDTA, the reaction mixture is injected onto a HiPrep desalifying column (GE HealthCare) preequilibrated in buffer A+4 mM Na3VO4, and the fractions containing the protein of interest (SDS PAGE analysis) are combined and stored at −80° C. The degree of phosphorylation is verified by mass spectrometry (LC-MS) and by peptide mapping.
• A) Test A: HTRF MET assay in 96-well format
MET at a final concentration of 5 nM is incubated in a final volume of 50 μl of enzymatic reaction in the presence of the test molecule (for a final concentration range of from 0.17 nM to 10 μM, 3% DMSO final concentration) in 10 mM MOPS buffer, pH 7.4, 1 mM DTT, 0.01% Tween 20. The reaction is initiated with the substrate solution to obtain final concentrations of 1 μg/ml poly-(GAT), 10 μM ATP and 5 mM MgCl2. After incubation for 10 min at ambient temperature, the reaction is stopped with a 30 μl mix so as to obtain a final solution of 50 mM Hepes pH 7.5, 500 mM potassium fluoride, 0.1% BSA and 133 mM EDTA in the presence of 80 ng of streptavidin 61SAXLB Cis-Bio Int. and 18 ng of anti-phosphotyrosine Mab PT66-Europium Cryptate per well. After incubation for 2 hours at ambient temperature, the reading is taken at 2 wavelengths, 620 nm and 665 nm, on a reader for the TRACE/HTRF technique and the % inhibition is calculated from the 665/620 ratios.
Target sequence in this assay (P08581 956-1390): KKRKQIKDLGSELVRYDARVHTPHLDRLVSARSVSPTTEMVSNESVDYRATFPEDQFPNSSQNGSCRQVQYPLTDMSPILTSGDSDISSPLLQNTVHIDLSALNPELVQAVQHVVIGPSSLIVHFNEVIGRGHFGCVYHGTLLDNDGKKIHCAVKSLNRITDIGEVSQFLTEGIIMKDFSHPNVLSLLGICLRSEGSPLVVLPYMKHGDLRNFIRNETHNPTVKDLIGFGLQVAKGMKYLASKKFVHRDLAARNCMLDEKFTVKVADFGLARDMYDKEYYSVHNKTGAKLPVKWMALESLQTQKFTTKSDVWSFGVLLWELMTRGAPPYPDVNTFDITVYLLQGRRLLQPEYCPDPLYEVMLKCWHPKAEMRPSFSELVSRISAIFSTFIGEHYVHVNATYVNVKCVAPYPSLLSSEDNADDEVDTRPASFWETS

IC50 (MET [1]) | IC50 [2] | IC50 (MET [3]) | Structure (SMILES)
0.1 to 0.5 µM | < 1 µM | < 0.1 µM | Nc1ccc2nnc(Sc3ccc4nc(NC(=O)NCCN5CCOCC5)sc4c3)n2n1 [Example 29, 1-{6-[(6-Amino[1,2,4]triazolo[4,3-b]pyridazin-3-yl)sulphanyl]-1,3-benzothiazol-2-yl}-3-[2-(morpholin-4-yl)ethyl]urea]
< 0.1 µM | < 1 µM | < 0.1 µM | Fc1ccc(-c2ccc3nnc(Sc4ccc5nc(NCCN6CCOCC6)sc5c4)n3n2)cc1 [Example 30, 6-{[6-(4-Fluorophenyl)[1,2,4]triazolo[4,3-b]pyridazin-3-yl]sulphanyl}-N-[2-(morpholin-4-yl)ethyl]-1,3-benzothiazol-2-amine]
0.1 to 0.5 µM | < 1 µM | < 0.1 µM | CC(=O)Nc1ccc2nnc(Sc3ccc4nc(NC(=O)NCCN5CCOCC5)sc4c3)n2n1 [Example 31, N-(3-{[2-({[2-(Morpholin-4-yl)ethyl]carbamoyl}amino)-1,3-benzothiazol-6-yl]sulphanyl}[1,2,4]triazolo[4,3-b]pyridazin-6-yl)acetamide]
< 0.1 µM | < 1 µM | < 0.1 µM | CC(C)(C)C(=O)Nc1ccc2nnc(Sc3ccc4nc(NC(=O)NCCN5CCOCC5)sc4c3)n2n1 [Example 32, 2,2-Dimethyl-N-(3-{[2-({[2-(morpholin-4-yl)ethyl]carbamoyl}amino)-1,3-benzothiazol-6-yl]sulphanyl}[1,2,4]triazolo[4,3-b]pyridazin-6-yl)propanamide]
< 0.1 µM | < 10 µM | < 0.1 µM | O=C(NCCN1CCOCC1)Nc1nc2ccc(Sc3nnc4ccc(OCC5CCO5)nn34)cc2s1 (stereo not drawn) [Example 34, 1-[2-(Morpholin-4-yl)ethyl]-3-(6-{[6-(oxetan-2-ylmethoxy)[1,2,4]triazolo[4,3-b]pyridazin-3-yl]sulphanyl}-1,3-benzothiazol-2-yl)urea]
< 0.1 µM | < 1 µM | < 0.1 µM | O=C(Nc1nc2ccc(Sc3nnc4ccc(-c5ccc(F)cc5)nn34)cc2s1)OCC1CCO1 (stereo not drawn) [Example 35, Oxetan-2-ylmethyl (6-{[6-(4-fluorophenyl)[1,2,4]triazolo[4,3-b]pyridazin-3-yl]sulphanyl}-1,3-benzothiazol-2-yl)carbamate]
< 0.1 µM | < 1 µM | < 0.1 µM | COc1ccc2nnc(Sc3ccc4nc(NC(=O)C5CC5)sc4c3)n2n1 [Example 36, N-{6-[(6-Methoxy[1,2,4]triazolo[4,3-b]pyridazin-3-yl)sulphanyl]-1,3-benzothiazol-2-yl}cyclopropanecarboxamide]
< 0.1 µM | < 1 µM | < 0.1 µM | CCOc1ccc2nnc(Sc3ccc4nc(NC(=O)NCCN5CCOCC5)sc4c3)n2n1 [Example 37, 1-{6-[(6-Ethoxy[1,2,4]triazolo[4,3-b]pyridazin-3-yl)sulphanyl]-1,3-benzothiazol-2-yl}-3-[2-(morpholin-4-yl)ethyl]urea]
< 0.1 µM | < 1 µM | < 0.1 µM | CCOC1=Nn2c(nnc2Sc2ccc3nc(NC(=O)NCCN4CCOCC4)sc3c2)CC1 [Example 38, 1-{6-[(6-Ethoxy-7,8-dihydro[1,2,4]triazolo[4,3-b]pyridazin-3-yl)sulphanyl]-1,3-benzothiazol-2-yl}-3-[2-(morpholin-4-yl)ethyl]urea]
< 0.1 µM | < 1 µM | < 0.1 µM | COCCNc1ccc2nnc(Sc3ccc4nc(NC(=O)CCCN5CCOCC5)sc4c3)n2n1 [Example 39, N-[6-({6-[(2-Methoxyethyl)amino][1,2,4]triazolo[4,3-b]pyridazin-3-yl}sulphanyl)-1,3-benzothiazol-2-yl]-4-(morpholin-4-yl)butanamide]

Structure (SMILES) | IC50 (MET [1]) | IC50 [2] | IC50 (MET [3])
O=C(Nc1nc2ccc(Sc3nnc4ccc(-c5ccc(F)cc5)nn34)cc2s1)Oc1ccccc1 [Example 33, Phenyl (6-{[6-(4-fluorophenyl)[1,2,4]triazolo[4,3-b]pyridazin-3-yl]sulphanyl}-1,3-benzothiazol-2-yl)carbamate] | < 0.1 µM | < 1 µM | < 0.5 µM
